Laboratory results as given in ChEMBL document CHEMBL4715842, “Sulfonamide/sulfamate switch with a series of piperazinylureido derivatives: Synthesis, kinetic and in silico evaluation as carbonic anhydrase isoforms I, II, IV, and IX inhibitors” (Eur J Med Chem, 2020).

Assays:
Carbonic anhydrase 1 = Carbonic anhydrase 1 (Homo sapiens, UniProt P00915); assay: Inhibition of recombinant human carbonic anhydrase 1 incubated for 15 mins prior to testing measured for 10 to 100 secs by phenol red-based stopped-flow CO2 hydration assay
Carbonic anhydrase 4 = Carbonic anhydrase 4 (Homo sapiens, UniProt P22748); assay: Inhibition of recombinant human carbonic anhydrase 4 incubated for 15 mins prior to testing measured for 10 to 100 secs by phenol red-based stopped-flow CO2 hydration assay
Carbonic anhydrase 9 = Carbonic anhydrase 9 (Homo sapiens, UniProt Q16790); assay: Inhibition of recombinant human carbonic anhydrase 9 incubated for 15 mins prior to testing measured for 10 to 100 secs by phenol red-based stopped-flow CO2 hydration assay
Carbonic anhydrase 2 = Carbonic anhydrase 2 (Homo sapiens, UniProt P00918); assay: Inhibition of recombinant human carbonic anhydrase 2 incubated for 15 mins prior to testing measured for 10 to 100 secs by phenol red-based stopped-flow CO2 hydration assay
Homo sapiens = species on record: Homo sapiens; assay: Selectivity ratio of Ki for inhibition of recombinant human carbonic anhydrase 2 to Ki for Ki for inhibition of recombinant human carbonic anhydrase 9

Chain of Carbonic anhydrase 1 (P00915 whole entry): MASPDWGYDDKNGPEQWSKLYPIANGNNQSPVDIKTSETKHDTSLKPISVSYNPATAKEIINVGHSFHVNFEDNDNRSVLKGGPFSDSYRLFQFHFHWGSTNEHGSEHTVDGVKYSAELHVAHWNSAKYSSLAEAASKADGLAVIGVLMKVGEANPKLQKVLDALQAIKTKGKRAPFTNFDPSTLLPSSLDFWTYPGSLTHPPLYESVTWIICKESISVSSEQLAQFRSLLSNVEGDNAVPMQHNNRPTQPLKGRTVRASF
Chain of Carbonic anhydrase 4 (P22748 whole entry): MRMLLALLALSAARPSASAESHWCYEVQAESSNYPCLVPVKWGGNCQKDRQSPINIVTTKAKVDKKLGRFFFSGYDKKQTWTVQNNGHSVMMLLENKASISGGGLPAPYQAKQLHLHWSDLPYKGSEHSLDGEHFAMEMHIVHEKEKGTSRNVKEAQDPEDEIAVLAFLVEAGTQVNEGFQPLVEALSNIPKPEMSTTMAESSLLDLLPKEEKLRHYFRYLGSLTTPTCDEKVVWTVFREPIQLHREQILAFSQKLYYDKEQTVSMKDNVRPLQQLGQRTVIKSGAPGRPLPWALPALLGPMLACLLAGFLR

Compound | Ki (Carbonic anhydrase 1) | Ki (Carbonic anhydrase 4) | Ki (Carbonic anhydrase 9) | Ki (Carbonic anhydrase 2) | Ratio Ki (Homo sapiens)
COc1ccc(-c2ccnc(N3CCN(C(=O)Nc4ccc(OS(N)(=O)=O)cc4)CC3)n2)cc1 | 3.93 µM | 0.384 µM | 31.8 µM | 0.0291 µM | –
Cc1ccccc1N1CCN(C(=O)Nc2ccc(OS(N)(=O)=O)cc2)CC1 | 0.692 µM | 0.759 µM | 29.7 µM | 0.0569 µM | –
CCCCCCCCN1CCN(C(=O)Nc2ccc(OS(N)(=O)=O)cc2)CC1 | 0.752 µM | 4.8 µM | 31.4 µM | 0.0159 µM | –
Cc1cccc(-c2ccnc(N3CCN(C(=O)Nc4ccc(OS(N)(=O)=O)cc4)CC3)n2)c1 | 4.07 µM | 1.32 µM | 93.3 µM | 0.207 µM | –
NS(=O)(=O)Oc1ccc(NC(=O)N2CCN(c3nccc(-c4cccc(Br)c4)n3)CC2)cc1 | 7.77 µM | 0.831 µM | 30.5 µM | 0.124 µM | –
COc1cc(-c2ccnc(N3CCN(C(=O)Nc4ccc(OS(N)(=O)=O)cc4)CC3)n2)cc(OC)c1OC | 5.28 µM | 0.28 µM | 24.2 µM | 0.0068 µM | –
CCCCCCCCCCN1CCN(C(=O)Nc2ccc(OS(N)(=O)=O)cc2)CC1 | 0.68 µM | 4.19 µM | 32.2 µM | 0.021 µM | –
Cc1cccc(N2CCN(C(=O)Nc3ccc(OS(N)(=O)=O)cc3)CC2)c1C | – | 1.09 µM | – | – | –
NS(=O)(=O)Oc1ccc(NC(=O)N2CCN(c3nccc(-c4ccccc4)n3)CC2)cc1 | 2.37 µM | 4.1 µM | 156 µM | 0.706 µM | –
NS(=O)(=O)Oc1ccc(NC(=O)N2CCN(c3ccccc3)CC2)cc1 | – | – | – | – | 7
NS(=O)(=O)Oc1ccc(NC(=O)N2CCN(c3ccc(Cl)cc3)CC2)cc1 | – | 2.59 µM | – | – | –
NS(=O)(=O)Oc1ccc(NC(=O)N2CCN(Cc3cc4ccccc4o3)CC2)cc1 | 0.76 µM | – | 32.7 µM | 0.0362 µM | –
COc1cccc(N2CCN(C(=O)Nc3ccc(OS(N)(=O)=O)cc3)CC2)c1 | – | 0.994 µM | – | – | –
COc1ccc(N2CCN(C(=O)Nc3ccc(OS(N)(=O)=O)cc3)CC2)cc1 | – | 1.63 µM | – | – | –
NS(=O)(=O)Oc1ccc(NC(=O)N2CCN(c3nccc(-c4cccc(C(F)(F)F)c4)n3)CC2)cc1 | 3.47 µM | 0.458 µM | 27.1 µM | 0.0587 µM | –
NS(=O)(=O)Oc1ccc(NC(=O)N2CCN(c3ccc(Cl)c(Cl)c3)CC2)cc1 | 0.919 µM | 1.64 µM | – | 0.0454 µM | –
Cc1cccc(N2CCN(C(=O)Nc3ccc(OS(N)(=O)=O)cc3)CC2)c1 | – | – | – | – | 16
